Measured values published in PubChem BioAssay AID1963869 (Molecular Pharmacology Branch, DTP, NCI, 2024).

Test system: KRAS patient-derived spheroids with HUVEC/MSC, viability
Assay: Anticancer human tumor 323965-272-R-J2-PDC patient-derived pancreatic carcinoma cell line growth inhibition [KRAS2]
Details: for IC50: curve of first compound; for viability, T/C: stronger effect = lower value; active = viability on the fitted dose curve at most 10% of control; inactive = the rest
Outline: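 Combination screen of spheroid viability in tumor-cell co-cultures with endothelial (HUVEC) and mesenchymal stem cell stroma. Each agent was tested in half-log dilutions, topping at clinical Cmax or at 10 microM without a known Cmax.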

[1] = second compound 0.1 µM, first compound 0.000316 µM
[2] = second compound 0.1 µM, first compound 0.001 µM
[3] = second compound 0.1 µM, first compound 0.00316 µM
[4] = second compound 0.1 µM, first compound 0.01 µM
[5] = second compound 0.1 µM, first compound 0.0316 µM
[6] = second compound 0.316 µM, first compound 0.000316 µM
[7] = second compound 0.316 µM, first compound 0.001 µM
[8] = second compound 0.316 µM, first compound 0.00316 µM
[9] = second compound 0.316 µM, first compound 0.01 µM
[10] = second compound 0.316 µM, first compound 0.0316 µM
[11] = second compound 1 µM, first compound 0.000316 µM
[12] = second compound 1 µM, first compound 0.001 µM
[13] = second compound 1 µM, first compound 0.00316 µM
[14] = second compound 1 µM, first compound 0.01 µM
[15] = second compound 1 µM, first compound 0.0316 µM
[16] = second compound 3.16 µM, first compound 0.000316 µM
[17] = second compound 3.16 µM, first compound 0.001 µM
[18] = second compound 3.16 µM, first compound 0.00316 µM
[19] = second compound 3.16 µM, first compound 0.01 µM
[20] = second compound 3.16 µM, first compound 0.0316 µM
[21] = second compound 10 µM, first compound 0.000316 µM
[22] = second compound 10 µM, first compound 0.001 µM
[23] = second compound 10 µM, first compound 0.00316 µM
[24] = second compound 10 µM, first compound 0.01 µM
[25] = second compound 10 µM, first compound 0.0316 µM
[26] = second compound 0.1 µM, first compound 0.1 µM
[27] = second compound 0.316 µM, first compound 0.1 µM
[28] = second compound 1 µM, first compound 0.1 µM
[29] = second compound 3.16 µM, first compound 0.1 µM
[30] = second compound 10 µM, first compound 0.1 µM
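Note: spheroids exposed to agents for 7 days.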
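Throughout, for viability, T/C: 100% = DMSO vehicle control viability.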

CC(=O)Nc1cccc(-n2c(=O)n(C3CC3)c(=O)c3c(Nc4ccc(I)cc4F)n(C)c(=O)c(C)c32)c1 + CC1OCC2(CCN(c3cnc(Sc4ccnc(N)c4Cl)c(N)n3)CC2)C1N
0.438 nM: IC50 (second compound 0.316 µM)
1.78 nM: IC50 (second compound 0.1 µM)
inactive: viability, T/C (second compound 0.1 µM, first compound 0.0001 µM) 80.7% | viability, T/C [1] 72.3% | viability, T/C [2] 56.4% | viability, T/C [3] 41.8% | viability, T/C [4] 35% | viability, T/C [5] 25.8% | viability, T/C (second compound 0.316 µM, first compound 0.0001 µM) 63.1% | viability, T/C [6] 53.3% | viability, T/C [7] 41.7% | viability, T/C [8] 34.9% | viability, T/C [9] 27.1% | viability, T/C [10] 20.4% | viability, T/C (second compound 1 µM, first compound 0.0001 µM) 47.3% | viability, T/C [11] 40% | viability, T/C [12] 33.6% | viability, T/C [13] 25.6% | viability, T/C [14] 20.4% | viability, T/C [15] 17.1% | viability, T/C (second compound 3.16 µM, first compound 0.0001 µM) 29% | viability, T/C [16] 27.8% | viability, T/C [17] 21.7% | viability, T/C [18] 17.4% | viability, T/C [19] 18.8% | viability, T/C [20] 17.8% | viability, T/C (second compound 10 µM, first compound 0.0001 µM) 29% | viability, T/C [21] 26.3% | viability, T/C [22] 19.7% | viability, T/C [23] 17.7% | viability, T/C [24] 14.8% | viability, T/C [25] 15.9%
< 0.1 nM: IC50 (second compound 1 µM) | IC50 (second compound 3.16 µM) | IC50 (second compound 10 µM)

CC(C)n1nc(-c2ccc3oc(N)nc3c2)c2c(N)ncnc21 + CC1OCC2(CCN(c3cnc(Sc4ccnc(N)c4Cl)c(N)n3)CC2)C1N
1.23 nM: IC50 (second compound 0.1 µM)
inactive: viability, T/C [1] 77% | viability, T/C [2] 52.3% | viability, T/C [3] 36.2% | viability, T/C [4] 26.7% | viability, T/C [5] 18.1% | viability, T/C [26] 13.7% | viability, T/C [6] 46.2% | viability, T/C [7] 42.1% | viability, T/C [8] 31.8% | viability, T/C [9] 21% | viability, T/C [10] 12.4% | viability, T/C [11] 47.9% | viability, T/C [12] 35.9% | viability, T/C [13] 26.8% | viability, T/C [14] 15.6% | viability, T/C [16] 36.2% | viability, T/C [17] 27% | viability, T/C [18] 21.4% | viability, T/C [19] 10.4% | viability, T/C [21] 28.1% | viability, T/C [22] 22.7% | viability, T/C [23] 15.6%
< 0.316 nM: IC50 (second compound 0.316 µM) | IC50 (second compound 1 µM) | IC50 (second compound 3.16 µM) | IC50 (second compound 10 µM)
active: viability, T/C [27] 5.7% | viability, T/C [15] 7.51% | viability, T/C [28] 2.03% | viability, T/C [20] 4.33% | viability, T/C [29] 1.32% | viability, T/C [24] 6.84% | viability, T/C [25] 1.96% | viability, T/C [30] 0.92%

CC1(C)CCC(CN2CCN(c3ccc(C(=O)NS(=O)(=O)c4ccc(NCC5CCOCC5)c([N+](=O)[O-])c4)c(Oc4cnc5[nH]ccc5c4)c3)CC2)=C(c2ccc(Cl)cc2)C1 + CC1OCC2(CCN(c3cnc(Sc4ccnc(N)c4Cl)c(N)n3)CC2)C1N
active: viability, T/C (second compound 0.1 µM, first compound 10 µM) 3.29% | viability, T/C (second compound 0.316 µM, first compound 3.16 µM) 6.85% | viability, T/C (second compound 0.316 µM, first compound 10 µM) 2.39% | viability, T/C (second compound 1 µM, first compound 3.16 µM) 5.15% | viability, T/C (second compound 1 µM, first compound 10 µM) 1.19% | viability, T/C (second compound 3.16 µM, first compound 3.16 µM) 4.11% | viability, T/C (second compound 3.16 µM, first compound 10 µM) 1.21% | viability, T/C (second compound 10 µM, first compound 3.16 µM) 2.63% | viability, T/C (second compound 10 µM, first compound 10 µM) 0.27%
1070 nM: IC50 (second compound 0.316 µM)
inactive: viability, T/C [5] 81.6% | viability, T/C [26] 74.7% | viability, T/C (second compound 0.1 µM, first compound 0.316 µM) 78% | viability, T/C (second compound 0.1 µM, first compound 1 µM) 65.3% | viability, T/C (second compound 0.1 µM, first compound 3.16 µM) 10.1% | viability, T/C [10] 56.9% | viability, T/C [27] 63.4% | viability, T/C (second compound 0.316 µM, first compound 0.316 µM) 49.9% | viability, T/C (second compound 0.316 µM, first compound 1 µM) 53% | viability, T/C [15] 43.9% | viability, T/C [28] 45.9% | viability, T/C (second compound 1 µM, first compound 0.316 µM) 40.5% | viability, T/C (second compound 1 µM, first compound 1 µM) 34% | viability, T/C [20] 37.3% | viability, T/C [29] 32.7% | viability, T/C (second compound 3.16 µM, first compound 0.316 µM) 26.6% | viability, T/C (second compound 3.16 µM, first compound 1 µM) 20.2% | viability, T/C [25] 24.6% | viability, T/C [30] 24.5% | viability, T/C (second compound 10 µM, first compound 0.316 µM) 25.4% | viability, T/C (second compound 10 µM, first compound 1 µM) 20.9%
1380 nM: IC50 (second compound 0.1 µM)
< 31.6 nM: IC50 (second compound 1 µM) | IC50 (second compound 3.16 µM) | IC50 (second compound 10 µM)
